Measured values: patent publication US11484543B2, “Compositions and methods for diagnosing and treating diseases and disorders associated with mutant KCNJ5” (The Rockefeller University, priority 2017, dated 2022)

Target: T1, KCNJ3/KCNJ5^G151R (Homo sapiens, UniProt P48544, G151R)
T1 construct: GFP; expressed in transfected cells; host or cells: HEK293T (American Type Culture Collection), transient co-transfection
T1 sequence (P48544 1-419 G151R): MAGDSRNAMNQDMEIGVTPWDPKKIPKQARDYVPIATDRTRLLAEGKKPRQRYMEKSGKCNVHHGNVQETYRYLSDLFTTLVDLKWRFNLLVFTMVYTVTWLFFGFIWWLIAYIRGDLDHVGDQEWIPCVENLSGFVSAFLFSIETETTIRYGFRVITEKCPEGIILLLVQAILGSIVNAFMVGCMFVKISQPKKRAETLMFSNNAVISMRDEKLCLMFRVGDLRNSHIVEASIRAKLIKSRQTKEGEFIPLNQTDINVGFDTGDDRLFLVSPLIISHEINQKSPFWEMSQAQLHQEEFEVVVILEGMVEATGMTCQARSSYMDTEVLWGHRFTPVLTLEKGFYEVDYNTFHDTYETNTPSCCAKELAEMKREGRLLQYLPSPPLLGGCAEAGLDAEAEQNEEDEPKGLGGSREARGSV
T1 sequence (P48549 1-501 partner): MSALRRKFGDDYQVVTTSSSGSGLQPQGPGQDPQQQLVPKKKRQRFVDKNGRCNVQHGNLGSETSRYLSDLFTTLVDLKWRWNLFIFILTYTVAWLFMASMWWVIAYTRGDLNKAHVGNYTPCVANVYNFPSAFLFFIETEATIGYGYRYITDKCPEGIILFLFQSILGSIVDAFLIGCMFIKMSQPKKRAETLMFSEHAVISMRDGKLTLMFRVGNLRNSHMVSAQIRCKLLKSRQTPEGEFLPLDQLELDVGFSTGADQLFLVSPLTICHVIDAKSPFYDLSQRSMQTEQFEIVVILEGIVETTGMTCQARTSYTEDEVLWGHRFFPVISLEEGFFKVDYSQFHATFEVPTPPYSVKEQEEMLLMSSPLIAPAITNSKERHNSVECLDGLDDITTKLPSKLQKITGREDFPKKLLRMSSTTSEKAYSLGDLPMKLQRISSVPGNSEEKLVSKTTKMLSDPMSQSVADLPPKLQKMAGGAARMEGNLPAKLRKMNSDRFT
Assay: Perforated whole-cell patch clamp, KCNJ3/KCNJ5^G151R heterotetramers in HEK293T cells
Type: cell-based
Method: HEK293T cells (American Type Culture Collection) were used for transient expression of GFP-tagged KCNJ5 or KCNJ3. The cells were grown in Dulbecco's modified Eagle medium (DMEM; Invitrogen) supplemented with 10% FBS (Invitrogen) in 5% CO2 and 95% air at 37° C. Cells were grown to 50-70% confluence for transfection, and the corresponding cDNAs (Choi et al., 2011, Science 331:768-772) were simultaneously applied to the cells using TurboFect transfection reagent according to the manufacturer's protocol (Fermentas). […]
Within 24 hr after transfection, the cells were treated with trypsin-containing medium (TrypLE Express) (Gibco) for 10 minutes to detach the cells. […] Fluorescence signal (an indication of positive transfection) was detected with an intensified video imaging system including a SIT 68 camera (Long Island Industries). […] After forming a high resistance seal (>2 GΩ), the membrane capacitance was monitored until the whole-cell patch configuration was formed. The cell membrane capacitance was measured and compensated. The K/cation currents were measured from −80 mV to 20 mV with 20 mV steps by an Axon 200A patch-clamp amplifier. The currents were low-pass filtered at 1 KHz and digitized by an Axon interface (Digidata 1200) and were analyzed using the pClamp software system 9 (Axon). […]

Compound	inhibition of KCNJ3/KCNJ5^G151R currents (20 μM, 10 minutes after addition)	inhibition of mutant KCNJ5 in electrophysiological studies (10 μM, heterotetramers of KCNJ3 and mutant or WT KCNJ5 (FIG. 13))
CC[C@H]1OC(=O)[C@H](C)[C@@H](O[C@H]2C[C@@](C)(OC)[C@@H](O)[C@H](C)O2)[C@H](C)[C@@H](O[C@@H]2O[C@H](C)C[C@H](N(C)C)[C@H]2O)[C@](C)(O)C[C@@H](C)/C(=N\OCOCCOC)[C@H](C)[C@@H](O)[C@]1(C)O [Roxithromycin, roxithromycin]	almost complete inhibition	–
N-demethyl-N-isobutyl-8,9-anhydroerythromycin A 6,9-hemiacetal [PLUX37]	–	specific inhibition of mutant KCNJ5
